Laboratory results: patent US9029391B2 (priority 2011, dated 2015)

tested on: HIV; assay: MT4 Assay (anti-HIV activity); assay type: cell-based; conditions: Human immunodeficiency virus 1, 96 h, read-out: HIV MT4 Assay IC50, HTLV-1 transformed cell line MT-4, cell titer glo, 10 point dose response curve
In short: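 IC50 values were fitted to 10-point dose-response series (3-4-fold dilutions, range >1000-fold), normalized to no-compound control. CellTiter-Glo read-out was taken after 96 hours in HTLV-1-transformed MT-4 cells. Cytotoxicity was measured in parallel under identical conditions.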

In order of rising IC50:
1. Cc1cc(C)c(-c2c(C(OC(C)(C)C)C(=O)O)n(C)c(=O)c3ccccc23)cc1C (centres unmarked) [Example 43, 2-(tert-butoxy)-2-[2-methyl-1-oxo-4-(2,4,5-trimethylphenyl)-1,2-dihydroisoquinolin-3-yl]acetic acid]  0.37 µM
2. Cc1ccc2c(-c3ccc4c(c3)CCCO4)c(C(OC(C)(C)C)C(=O)O)n(C)c(=O)c2c1 (centres unmarked) [Example 58, 2-(tert-butoxy)-2-[4-(3,4-dihydro-2H-1-benzopyran-6-yl)-2,7-dimethyl-1-oxo-1,2-dihydroisoquinolin-3-yl]acetic acid]  0.37 µM
3. Cc1ccc(-c2c(C(OC(C)(C)C)C(=O)O)n(C)c(=O)c3ccccc23)c(C)c1 (centres unmarked) [Example 34, 2-(tert-butoxy)-2-[4-(2,4-dimethylphenyl)-2-methyl-1-oxo-1,2-dihydroisoquinolin-3-yl]acetic acid]  0.41 µM
4. Cc1ccc2c(-c3ccc(C)c(C)c3)c(C(OC(C)(C)C)C(=O)O)n(C)c(=O)c2c1 (centres unmarked) [Example 60, 2-(tert-butoxy)-2-[4-(3,4-dimethylphenyl)-2,7-dimethyl-1-oxo-1,2-dihydroisoquinolin-3-yl]acetic acid]  1.29 µM
5. Cn1c(C(OC(C)(C)C)C(=O)O)c(-c2ccc(F)cc2F)c2ccccc2c1=O (centres unmarked) [Example 46, 2-(tert-butoxy)-2-[4-(2,4-difluorophenyl)-2-methyl-1-oxo-1,2-dihydroisoquinolin-3-yl]acetic acid]  1.57 µM
6. Cn1c(C(OC(C)(C)C)C(=O)O)c(-c2ccc3c(c2)CCCO3)c2ccc(F)cc2c1=O (centres unmarked) [Example 57, 2-(tert-butoxy)-2-[4-(3,4-dihydro-2H-1-benzopyran-6-yl)-7-fluoro-2-methyl-1-oxo-1,2-dihydroisoquinolin-3-yl]acetic acid]  1.65 µM
7. Cc1ccc(-c2c(C(OC(C)(C)C)C(=O)O)n(C)c(=O)c3ccc(F)cc23)cc1C (centres unmarked) [Example 56, 2-(tert-butoxy)-2-[4-(3,4-dimethylphenyl)-6-fluoro-2-methyl-1-oxo-1,2-dihydroisoquinolin-3-yl]acetic acid]  1.68 µM
8. COc1ccc(-c2c(C(OC(C)(C)C)C(=O)O)n(C)c(=O)c3ccccc23)c(C)c1 (centres unmarked) [Example 31, 2-(tert-butoxy)-2-[4-(4-methoxy-2-methylphenyl)-2-methyl-1-oxo-1,2-dihydroisoquinolin-3-yl]acetic acid]  1.72 µM
9. CCc1ccc(-c2c(C(OC(C)(C)C)C(=O)O)n(C)c(=O)c3ccccc23)cc1 (centres unmarked) [Example 47, 2-(tert-butoxy)-2-[4-(4-ethylphenyl)-2-methyl-1-oxo-1,2-dihydroisoquinolin-3-yl]acetic acid]  1.85 µM
10. Cn1c(C(OC(C)(C)C)C(=O)O)c(-c2ccc3c(c2)CCCO3)c2ccccc2c1=O (centres unmarked) [Example 39, 2-(tert-butoxy)-2-[4-(3,4-dihydro-2H-1-benzopyran-6-yl)-2-methyl-1-oxo-1,2-dihydroisoquinolin-3-yl]acetic acid]  1.88 µM
11. Cn1c(C(OC(C)(C)C)C(=O)O)c(-c2ccc3c(c2)CCCO3)c2cccc(F)c2c1=O (centres unmarked) [Example 35, 2-(tert-butoxy)-2-[4-(3,4-dihydro-2H-1-benzopyran-6-yl)-8-fluoro-2-methyl-1-oxo-1,2-dihydroisoquinolin-3-yl]acetic acid]  1.89 µM
12. Cn1c(C(OC(C)(C)C)C(=O)O)c(-c2ccc3c(c2)CCCO3)c2cc(Cl)ccc2c1=O (centres unmarked) [Example 26, 2-(tert-butoxy)-2-[6-chloro-4-(3,4-dihydro-2H-1-benzopyran-6-yl)-2-methyl-1-oxo-1,2-dihydroisoquinolin-3-yl]acetic acid]  1.9 µM
13. Cn1c(C(OC(C)(C)C)C(=O)O)c(-c2cccc(F)c2)c2ccccc2c1=O (centres unmarked) [Example 40, 2-(tert-butoxy)-2-[4-(3-fluorophenyl)-2-methyl-1-oxo-1,2-dihydroisoquinolin-3-yl]acetic acid]  2.18 µM
14. Cc1ccc(-c2c(C(OC(C)(C)C)C(=O)O)n(C)c(=O)c3c(F)cccc23)cc1C (centres unmarked) [Example 59, 2-(tert-butoxy)-2-[4-(3,4-dimethylphenyl)-8-fluoro-2-methyl-1-oxo-1,2-dihydroisoquinolin-3-yl]acetic acid]  2.18 µM
15. Cn1c(C(OC(C)(C)C)C(=O)O)c(-c2ccc(F)c(F)c2)c2ccccc2c1=O (centres unmarked) [Example 38, 2-(tert-butoxy)-2-[4-(3,4-difluorophenyl)-2-methyl-1-oxo-1,2-dihydroisoquinolin-3-yl]acetic acid]  2.41 µM
16. Cn1c(C(OC(C)(C)C)C(=O)O)c(-c2ccc3c(c2)OCCO3)c2ccccc2c1=O (centres unmarked) [Example 53, 2-(tert-butoxy)-2-[4-(2,3-dihydro-1,4-benzodioxin-6-yl)-2-methyl-1-oxo-1,2-dihydroisoquinolin-3-yl]acetic acid]  2.46 µM
17. Cc1ccc2c(=O)n(C)c(C(OC(C)(C)C)C(=O)O)c(-c3ccc(C)c(C)c3)c2c1 (centres unmarked) [Example 55, 2-(tert-butoxy)-2-[4-(3,4-dimethylphenyl)-2,6-dimethyl-1-oxo-1,2-dihydroisoquinolin-3-yl]acetic acid]  2.56 µM
18. COc1cc(-c2c(C(OC(C)(C)C)C(=O)O)n(C)c(=O)c3ccccc23)ccc1C (centres unmarked) [Example 52, 2-(tert-butoxy)-2-[4-(3-methoxy-4-methylphenyl)-2-methyl-1-oxo-1,2-dihydroisoquinolin-3-yl]acetic acid]  3.12 µM
19. Cn1c(C(OC(C)(C)C)C(=O)O)c(-c2ccc3c(c2)OCO3)c2ccccc2c1=O (centres unmarked) [Example 51, 2-[4-(2H-1,3-benzodioxol-5-yl)-2-methyl-1-oxo-1,2-dihydroisoquinolin-3-yl]-2-(tert-butoxy)acetic acid]  5.3 µM
20. CCn1c(C(OC(C)(C)C)C(=O)O)c(-c2ccc(C)c(C)c2)c2ccccc2c1=O (centres unmarked) [Example 28, 2-(tert-butoxy)-2-[4-(3,4-dimethylphenyl)-2-ethyl-1-oxo-1,2-dihydroisoquinolin-3-yl]acetic acid]  6.13 µM
21. Cn1c(C(OC(C)(C)C)C(=O)O)c(-c2cccc3ccccc23)c2ccccc2c1=O (centres unmarked) [Example 29, 2-(tert-butoxy)-2-[2-methyl-4-(naphthalen-1-yl)-1-oxo-1,2-dihydroisoquinolin-3-yl]acetic acid]  8.3 µM
22. Cn1c(C(OC(C)(C)C)C(=O)O)c(-c2ccc3c(c2)OCCCO3)c2ccccc2c1=O (centres unmarked) [Example 61, 2-(tert-butoxy)-2-[4-(3,4-dihydro-2H-1,5-benzodioxepin-7-yl)-2-methyl-1-oxo-1,2-dihydroisoquinolin-3-yl]acetic acid]  8.7 µM
23. COc1ccc(-c2c(C(OC(C)(C)C)C(=O)O)n(C)c(=O)c3ccccc23)cc1C (centres unmarked) [Example 54, 2-(tert-butoxy)-2-[4-(4-methoxy-3-methylphenyl)-2-methyl-1-oxo-1,2-dihydroisoquinolin-3-yl]acetic acid]  12.3 µM
24. Cn1c(C(OC(C)(C)C)C(=O)O)c(-c2ccc3c(c2)OCCC3)c2ccccc2c1=O (centres unmarked) [Example 36, 2-(tert-butoxy)-2-[4-(3,4-dihydro-2H-1-benzopyran-7-yl)-2-methyl-1-oxo-1,2-dihydroisoquinolin-3-yl]acetic acid]  15 µM
25. COCc1ccc(-c2c(C(OC(C)(C)C)C(=O)O)n(C)c(=O)c3ccccc23)cc1 (centres unmarked) [Example 49, 2-(tert-butoxy)-2-{4-[4-(methoxymethyl)phenyl]-2-methyl-1-oxo-1,2-dihydroisoquinolin-3-yl}acetic acid]  15.6 µM
26. COc1ccccc1-c1c(C(OC(C)(C)C)C(=O)O)n(C)c(=O)c2ccccc12 (centres unmarked) [Example 33, 2-(tert-butoxy)-2-[4-(2-methoxyphenyl)-2-methyl-1-oxo-1,2-dihydroisoquinolin-3-yl]acetic acid]  21.7 µM
27. COc1ccc(-c2c(C(OC(C)(C)C)C(=O)O)n(C)c(=O)c3ccccc23)cc1OC (centres unmarked) [Example 50, 2-(tert-butoxy)-2-[4-(3,4-dimethoxyphenyl)-2-methyl-1-oxo-1,2-dihydroisoquinolin-3-yl]acetic acid]  25.6 µM
28. Cn1c(C(OC(C)(C)C)C(=O)O)c(-c2ccc3c(c2Cl)OCCC3)c2ccccc2c1=O (centres unmarked) [Example 37, 2-(tert-butoxy)-2-[4-(8-chloro-3,4-dihydro-2H-1-benzopyran-7-yl)-2-methyl-1-oxo-1,2-dihydroisoquinolin-3-yl]acetic acid]  33.2 µM
29. CCOc1ccc(-c2c(C(OC(C)(C)C)C(=O)O)n(C)c(=O)c3ccccc23)cc1 (centres unmarked) [Example 42, 2-(tert-butoxy)-2-[4-(4-ethoxyphenyl)-2-methyl-1-oxo-1,2-dihydroisoquinolin-3-yl]acetic acid]  33.3 µM
30. CC(C)(C)OC(C(=O)O)c1c(-c2ccc3c(c2)CCCO3)c2ccccc2c(=O)n1C1CC1 (centres unmarked) [Example 30, 2-(tert-butoxy)-2-[2-cyclopropyl-4-(3,4-dihydro-2H-1-benzopyran-6-yl)-1-oxo-1,2-dihydroisoquinolin-3-yl]acetic acid]  38.3 µM
31. CCCOc1ccc(-c2c(C(OC(C)(C)C)C(=O)O)n(C)c(=O)c3ccccc23)cc1 (centres unmarked) [Example 44, 2-(tert-butoxy)-2-[2-methyl-1-oxo-4-(4-propoxyphenyl)-1,2-dihydroisoquinolin-3-yl]acetic acid]  38.9 µM
32. COc1cc(-c2c(C(OC(C)(C)C)C(=O)O)n(C)c(=O)c3ccccc23)cc(OC)c1OC (centres unmarked) [Example 27, 2-(tert-butoxy)-2-[2-methyl-1-oxo-4-(3,4,5-trimethoxyphenyl)-1,2-dihydroisoquinolin-3-yl]acetic acid]  50 µM
33. Cn1c(C(OC(C)(C)C)C(=O)O)c(-c2cccnc2)c2ccccc2c1=O (centres unmarked) [Example 41, 2-(tert-butoxy)-2-[2-methyl-1-oxo-4-(pyridin-3-yl)-1,2-dihydroisoquinolin-3-yl]acetic acid]  50 µM
34. CC(C)Oc1ccc(-c2c(C(OC(C)(C)C)C(=O)O)n(C)c(=O)c3ccccc23)cc1 (centres unmarked) [Example 45, 2-(tert-butoxy)-2-{2-methyl-1-oxo-4-[4-(propan-2-yloxy)phenyl]-1,2-dihydroisoquinolin-3-yl}acetic acid]  50 µM
35. Cn1c(C(OC(C)(C)C)C(=O)O)c(-c2ccncc2)c2ccccc2c1=O (centres unmarked) [Example 48, 2-(tert-butoxy)-2-[2-methyl-1-oxo-4-(pyridin-4-yl)-1,2-dihydroisoquinolin-3-yl]acetic acid]  50 µM
